Results: ChEMBL document CHEMBL1145587, “Facile formation of hydrophilic derivatives of 5H-8,9-dimethoxy-5-[2-(N,N-dimethylamino)ethyl]-2,3-methylenedioxydibenzo[c,h] [1,6]naphthyridin-6-one (ARC-111) and its 12-aza analog via quaternary ammonium intermediates” (Bioorg Med Chem Lett, 2008)

Assays:
[1] = target: T1, DNA topoisomerase 1 (Homo sapiens) (UniProt P11387); assay: Effect on human topoisomerase 1-mediated plasmid DNA cleavage relative to topotecan
T1 sequence (whole entry): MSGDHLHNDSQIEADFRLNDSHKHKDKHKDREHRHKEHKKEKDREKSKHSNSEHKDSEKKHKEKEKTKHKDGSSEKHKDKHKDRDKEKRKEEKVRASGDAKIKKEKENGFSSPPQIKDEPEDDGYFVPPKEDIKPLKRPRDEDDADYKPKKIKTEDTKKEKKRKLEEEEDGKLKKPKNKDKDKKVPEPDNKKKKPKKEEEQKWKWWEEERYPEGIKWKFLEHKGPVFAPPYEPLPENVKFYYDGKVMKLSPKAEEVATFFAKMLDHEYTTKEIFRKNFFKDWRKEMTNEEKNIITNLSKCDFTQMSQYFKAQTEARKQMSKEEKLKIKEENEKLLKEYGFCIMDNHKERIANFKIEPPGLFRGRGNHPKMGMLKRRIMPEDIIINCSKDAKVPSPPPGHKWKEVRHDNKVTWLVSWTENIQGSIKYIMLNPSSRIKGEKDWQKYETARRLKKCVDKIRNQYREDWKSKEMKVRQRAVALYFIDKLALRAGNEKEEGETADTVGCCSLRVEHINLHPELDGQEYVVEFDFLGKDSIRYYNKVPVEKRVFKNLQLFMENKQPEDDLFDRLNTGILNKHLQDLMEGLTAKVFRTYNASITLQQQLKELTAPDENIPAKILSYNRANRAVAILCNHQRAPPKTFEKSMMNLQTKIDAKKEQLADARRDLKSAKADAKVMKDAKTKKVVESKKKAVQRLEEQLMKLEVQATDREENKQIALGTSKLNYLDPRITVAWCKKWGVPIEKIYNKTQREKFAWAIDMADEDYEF

[2] = Cytotoxicity against human camptothecin-resistant CPT-K5 cells; format: functional, cell-based
[3] = Cytotoxicity against […] cells; format: functional, cell-based; details: Mus musculus, P388CPT45
[4] = Cytotoxicity against human […] cells; format: functional, cell-based
[5] = system: P388; assay: Cytotoxicity against […] cells; format: functional, cell-based; details: Mus musculus

Structure (SMILES) | Activity [1] | IC50 [2] [nM] | IC50 [3] [nM] | IC50 [4] [nM] | IC50 [5] [nM]
COc1cc2c(=O)n(CCO)c3c4cc5c(cc4ncc3c2cc1OC)OCO5 | 4.7 | > 10000 | 900 | 30 | 30
COc1cc2c(=O)n(CCn3ccnc3)c3c4cc5c(cc4nnc3c2cc1OC)OCO5 | 0.1 | > 10000 | > 10000 | 400 | 190
COc1cc2c(=O)n(CCN(C)CCN(C)C)c3c4cc5c(cc4nnc3c2cc1OC)OCO5 | 0.4 | 2200 | 300 | 33 | 19
COc1cc2c(=O)n(CCNC(CO)(CO)CO)c3c4cc5c(cc4ncc3c2cc1OC)OCO5 | 2 | 7000 | 3500 | 330 | 330
COc1cc2c(=O)n(CCNC(CO)(CO)CO)c3c4cc5c(cc4nnc3c2cc1OC)OCO5 | 0.2 | 5700 | 3000 | 65 | 40
COc1cc2c(=O)n(CCN(C)C)c3c4cc5c(cc4ncc3c2cc1OC)OCO5 | 0.3 | 900 | 230 | 2 | 1
CC[C@@]1(O)C(=O)OCc2c1cc1n(c2=O)Cc2cc3ccccc3nc2-1 [CAMPTOTHECIN] | 0.2 | > 10000 | > 10000 | 4 | 4
COc1cc2c(=O)n(CCN(C)CCN(C)C)c3c4cc5c(cc4ncc3c2cc1OC)OCO5 | 0.7 | 2200 | 70 | 45 | 35
COc1cc2c(=O)n(CCO)c3c4cc5c(cc4nnc3c2cc1OC)OCO5 | 0.3 | 1300 | 700 | 13 | 12
COc1cc2c(=O)n(CCn3ccnc3)c3c4cc5c(cc4ncc3c2cc1OC)OCO5 | 2.3 | > 10000 | > 10000 | 210 | 200
COc1cc2c(=O)n(CCN(C)C)c3c4cc5c(cc4nnc3c2cc1OC)OCO5 | 0.3 | 740 | 230 | 2 | 2
